Test system: eIF2-GTP-Met-tRNAi ternary complex
Experiment: Ternary complex assay (dual luciferase, firefly/renilla ratio) in stable KLN-tTA/pBISA-DL(ATF-4) cells; HTS and hit confirmation
Format: cell-based, mouse
Parameters: Activity 10 uM / Activity 2.5 uM / Activity 5 uM: unit not given here
Details: confirmed hits of the screen (Table 5); for Activity 2.5 uM: compound at 2.5 uM; for Activity 10 uM: compound at 10 uM

| SMILES | Activity 2.5 uM | Activity 10 uM |
| --- | --- | --- |
| O=C1C(=O)c2ccccc2-c2ccccc21.O=C1C(=O)c2ccccc2-c2ccccc21.[Hg] [Compound 402785] | 50.88 | – |
| CC(C)(C)c1ccc(C(=O)C[n+]2ccc(Cl)c3ccc(Cl)cc32)cc1.[Br-] [Compound 402826] | 0.85 | 5.42 |
| Cc1ccc([As]=[As]c2ccc(C)cc2N)c(N)c1.Cl (centres unmarked) [Compound 402866] | 1.66 | 26.02 |
| NS(=O)(=O)c1ccc(NC(=S)Nc2ccc(S(=O)(=O)Nc3nccs3)cc2)cc1 [Compound 403440] | 1.41 | 3.83 |
| COC1OC(CI)C(OC(=O)c2ccccc2)C(OC(=O)c2ccccc2)C1OC(=O)c1ccccc1 (centres unmarked) [Compound 403488] | 1.55 | 4.41 |
| CCOc1ccc2c(c1)/C(=C\C=C\C1CC(C)C3CC(OCC)CCC3N1CC)CC(C)N2CC (centres unmarked) [Compound 403534] | 7.33 | 9.9 |
| Cc1ccc(NC(=O)c2ccc(Cl)cc2Cl)cc1 [Compound 405522] | 2.47 | 3.69 |
| CCCCN=C(C)CC(=O)CC(=O)c1ccccc1 [Compound 406018] | 1.51 | 4.09 |
| Cc1ccc(C23C=CC(c4ccccc4)(C2)C2C(=O)OC(=O)C23)cc1 (centres unmarked) [Compound 406824] | 1.76 | 4.25 |
| F[B-](F)(F)F.c1ccc([P+](c2ccccc2)(c2ccccc2)c2ccccc2)cc1 [Compound 407396] | 1.72 | 4.74 |
| CC(=O)Oc1cc2c(c3ccc4ccccc4c13)CCc1ccccc1-2 [Compound 407658] | 1.57 | 5.17 |
| O=C1C=CC(=Nc2ccc3c(c2)Cc2cc(Br)ccc2-3)O1 [Compound 408380] | 2.28 | 4.36 |
| O=C1C=CC(=O)N1c1ccc2c(c1)Cc1cc(NC(=O)C(F)(F)F)ccc1-2 [Compound 408383] | 0.84 | 10.77 |
| CN(C)c1ccc(/C=C/c2nccc3ccccc23)cc1 [Compound 408399] | 1.63 | 3.42 |
| Cc1cc2c(C(C)C)c(O)c(O)c(C=Nc3ccccc3[N+](=O)[O-])c2c(O)c1-c1c(C)cc2c(C(C)C)c(O)c(O)c(C=Nc3ccccc3[N+](=O)[O-])c2c1O [Compound 408711] | 1.47 | 21.88 |
| Cc1cc2c(C(C)C)c(O)c(O)c(C=Nc3ccc([N+](=O)[O-])cc3)c2c(O)c1-c1c(C)cc2c(C(C)C)c(O)c(O)c(C=Nc3ccc([N+](=O)[O-])cc3)c2c1O [Compound 408712] | 1.57 | 21.65 |
| Nc1ccc(O)c(-c2ccccc2)c1 [Compound 409777] | 20.85 | 5.55 |
| C(=N\Nc1ccc2ccccc2n1)/c1ccccn1 [Compound 527347] | 2.551 | 5.591 |
| CCN(CC)C1=C/CC/C(c2ccccc2)=N/N=C\1c1ccccc1 [Compound 601076] | 2.48 | 3.17 |
| Cc1ccc2occ/c(=N\Nc3ccccc3)c2c1 [Compound 601994] | 3.42 | 5.21 |
| O=Cc1c(-c2ccccc2)nc2sc(-c3ccc4c(c3)OCO4)nn12 [Compound 602807] | 2.08 | 3.12 |
| C=C(CN1CCCC1)C(=O)c1ccc(OC)cc1.Cl [Compound 603554] | 0.35 | 8.45 |
| CC(C)(C)C1=CC(=CC=C2C=CN(CCCCCCCCCCCO)C=C2)C=C(C(C)(C)C)C1=O [Compound 603854] | 0.93 | 4.19 |
| Cl.NC[CH2][Sn]([c]1ccccc1)([CH]1CCCCC1)[CH]1CCCCC1 [Compound 604861] | 0.8 | 4.82 |
